US9636021B2, “Flavonoid compounds of low toxicity for biological imaging applications” (The University of Akron, priority 2014, dated 2017)

Legend:
[1] = absorbance and fluorescence spectra in DMSO; assay type: physicochemical
Description: The absorbance and fluorescence spectra of compounds 1-6 in dimethyl sulfoxide (DMSO) were investigated and the results are in Table 1.

[2] = molecular target: bovine serum albumin (BSA) (Bos taurus, UniProt P02769); test: fluorescence turn-on with BSA in PBS buffer; assay type: binding; conditions: for detection limit (10% increase in fluorescence emission) / visual recognizable detection limit (S/N above 3:1): BSA; for F(+)/F(−) fluorescence intensity with BSA / without BSA: BSA 1.0 mg/ml; for F(+)/F(−) fluorescence intensity with BSA / without BSA / λabs(+) / λem(+) / λabs(−) / λem(−): 10 μM dye; for F(+)/F(−) fluorescence intensity with BSA / without BSA / fluorescence in the absence of BSA / λabs(+) / λem(+) / λabs(−) / λem(−): 10 mM PBS, 0.5% DMSO, pH 7.4; for fluorescence in the absence of BSA: aqueous buffer; for λabs(+) / λem(+): with BSA 1.0 mg/ml; for λabs(−) / λem(−): without BSA
Protocol: In the aqueous buffer (0.5% DMSO, 10 mM of PBS, pH=7.4), the BSA binding-induced fluorescence turn-on was so large that it could be easily seen by naked eye. […] The intramolecular charge transfer along the D-A conjugated backbone plays a very important role in the environment-sensitivity of the flavone. All the evidence consistently pointed to the flavone dye entering the hydrophobic site of BSA.
Generally, the detection limit can be defined as the analyte concentration at which a 10% increase in fluorescence emission can be measured.
Therefore, the detection limits of compounds 1-6 were 2.6, 0.14, 0.59, 0.09, 14, and 3.4 μg/mL, respectively. For Off/On type fluorescent sensor, the Signal-to-Noise (S/N) ratio above 3:1 is considered reliable for visual evaluation. The visual recognizable detection limits of compounds 1-6 were calculated as 78, 4.2, 17.7, 2.7, 420, and 102 μg/mL, respectively. The reference range for serum albumin concentration in human blood plasma is approximately 35-50 mg/mL. Even in fish, the concentration of serum albumins can reach 0.5-5 mg/mL. The detection limits of the compounds were much lower than serum albumin concentration, indicating the capability for actual blood sample testing.

dye-BSA complexes = dye-BSA complexes (Bos taurus, UniProt P02769); test: photostability of dye-BSA complexes under continuous UV irradiation; assay type: physicochemical, bovine; conditions: 365 nm, 500 μW/cm2, 10 μM dye, 1.0 mg/mL BSA
Protocol: The photostability of flavone dyes 1-6 in the presence of BSA was also examined to evaluate the application for long-term imaging. The dye-BSA complexes (10 μM of compounds 1-6, 1.0 mg/mL of BSA in 10 mM PBS buffer containing 0.5% DMSO, pH=7.4) were placed in cuvette cells, then were continuously irradiated under a hand-held UV lamp (λ=365 nm, 500 μW/cm2).

[3] = tested on: yolk syncytial layer (YSL) of zebrafish embryos; test: fluorescence staining of zebrafish embryos and larvae; assay type: in vivo, zebrafish (Danio rerio)
Protocol: Zebrafish embryos at 16 hours post fertilization (hpf) were initially used to study the CDCO's stain ability. A developing zebrafish body is normally covered by chorion and enveloping layer (EVL), which prevent dye molecules permeating into the fish body. In this example, 0.2% DMSO with 10 μM CDCO was infused to the E3 medium to decrease the barrier function of the zebra fish chorion without damaging the fish embryos' structural integrity. […] Thus, it is believed that CDCO selectively stained the YSL region.
To investigate the location of CDCO labeling, zebra fish embryos at nine representative stages of early development were incubated with 10 μM CDCO for 30 minutes at 28.5° C., respectively (FIGS. 3-8). The YSL is initially generated by the collapse/fusion of marginal blastomeres with the yolk cell, and then a thin ring of YSL nuclei forms in front of blastoderm margin at high stage.
The YSL structure can persist on the edge of yolk cell until larval stages. […] This YSL-imaging method can selectively stain the YSL structure from its initial formation, to the dynamic epiboly, and finally to the disappearance of YSL, thus representing a promising tracking agent for zebrafish embryonic development studies.
Wild-type zebrafish embryos were collected and maintained as described in The Zebrafish Book by Monte Westerfield, which is incorporated herein by reference. Zebrafish were kept at 28.5° C. and maintained in E3 embryo medium (15 mM NaCl, 0.5 mM KCl, 1 mM MgSO4, 1 mM CaCl2, 0.15 mM KH2PO4, 0.05 mM Na2HPO4, 0.7 mM NaHCO3, 10^−5% methylene blue; pH 7.5).
For the example represented by FIGS. 1 and 2, 10 μL CDCO stock solution (5 mmol/L CDCO in DMSO) was added into 5 mL E3 medium, then 16 hpf zebra fish embryos were gently transferred to this medium (solution) and incubated at 28.5° C. for 30 min. The dyes which stick to the chorion of the embryos were washed away with E3 medium before imaging by fluorescence microscopy.
For the example represented by FIGS. 3-8, the zebra fish embryos at 2.5 hpf, 4.5 hpf, 6.5 hpf, 7.5 hpf, 8.5 hpf, 11.5 hpf and 16.5 hpf were separately handled following the same procedure.
For the example represented by FIG. 22, the staining time required was 1 hour, since the CDCO was more difficult to penetrate through the older fish skin. Before imaging, the zebrafish were treated with tricaine (anesthetic 0.03%).
All the zebrafish were imaged using fluorescent microscopy (Axio. Vert with X-Cite Series 120Q). The blue-CH filter: excitation 365 nm, beam splitter FT 395 nm, emission 445/50 nm. The green-CH filter: excitation 450-490 nm, beam splitter FT 510 nm, emission 515-565 nm. The red-CH filter: excitation 587/25 nm, beam splitter FT 605 nm, and emission 647/70 nm.)

[4] = tested on: yolk syncytial layer (YSL) of zebrafish embryos; test: fluorescence stability and leakage of CDCO in zebrafish embryos; assay type: in vivo, zebrafish (Danio rerio); conditions: 5 hpf and 18 hpf embryos, 10 μM 30 min, washed, 1 hour in E3 medium
Protocol: Stability is one of the most important criteria for developing fluorescent imaging agents for living organisms, especially for tracking highly dynamic structures like the YSL.
(§1) The stable and biocompatible staining property of CDCO enables a long-term visualization method for tracking the development and migration of the YSL.
For the example represented by FIGS. 9-12, the 4.5 hpf and 17.5 hpf zebrafish embryos were firstly incubated in an E3 medium containing 10 μM CDCO and 0.2% DMSO for 0.5 h, then were washed with E3 medium, followed by incubating in the E3 medium for 1 hour.

zebrafish embryos = test: toxicity to labeled zebrafish embryos; assay type: in vivo, zebrafish (Danio rerio); conditions: morphology and size vs non-labeled control embryos
Description: as §1

[5] = molecular target: T1, bovin serum albumin (BSA) (Bos taurus, UniProt P02769); test: interaction between CDCO and BSA (absorption, fluorescence, warfarin displacement); assay type: binding, bovine
T1 construct: purchased Sigma Aldrich (St. Louis, Mo.)
Description: The bovin serum albumin (BSA) as the common protein model was used to investigate the interaction between CDCO and proteins. After addition of one equivalent of BSA, the absorption peak at 385 nm was shifted to 402 nm. With the excitation at 400 nm, the fluorescence intensity of CDCO was enhanced about 2-fold, which was accompanied with a large blue-shift (by about 60 nm) from 560 nm to 500 nm. […] However, when the sample was excited at 570 nm, a red/near-infrared fluorescence peak was detected at 700 nm. In order to determine the location of CDCO on BSA, the displacement of CDCO was carried out by addition of warfarin, which is known to strongly bind to the warfarin binding site in Domain II A of BSA. […] It is believed that the emission at 750 nm might be related to the complicated charge and energy transfer inside dye-BSA complex.

zebrafish vitellogenin = test: interaction between CDCO and zebrafish vitellogenin; assay type: binding
Protocol: ^1H NMR and ^13C NMR spectra were obtained using an AVANCE II apparatus from Bruker Corporation (Billerica, Mass.). UV-vis spectra were acquired on an 8453 diode-array spectrometer from Hewlett-Packard (Palo Alto, Calif.). Fluorescence spectra were measured by RF-5301 PC spectrometer from Shimadzu Corporation (Kyoto, Japan). Electrospray ionization (ESI) mass spectra were acquired with a Synapt HDMS quadrupole/time-of-flight (Q/ToF) mass spectrometer from Waters Corporation (Milford, Mass.). All the solvents for the fluorescence experiments were analytic grade, which were purchased from Fisher Scientific (Waltham, Mass.) and used without further purification. Bovine serum albumin was purchased from Sigma Aldrich (St. Louis, Mo.). Zebrafish vitellogenin standard was purchased from Cayman Europe Biosense Laboratories (No. V01008301). The fluorescence imaging was obtained by X-Cite™ Series 120Q fluorescence microscope from Lumen Dynamics. For the blue channel filter: excitation 365 nm, beam splitter FT 395 nm, emission 445/50 nm. For the green channel filter: excitation 450-490 nm, beam splitter FT 510 nm, emission 515-565 nm. For the red channel filter: excitation 587/25 nm, beam splitter FT 605 nm, emission 647/70 nm.
Zebrafish embryos at 16 hours post fertilization (hpf) were initially used to study the CDCO's stain ability. […]

[6] = embryos at early development stages, 10 μM, 30 minutes, 28.5° C.

T1 sequence (P02769 25-607): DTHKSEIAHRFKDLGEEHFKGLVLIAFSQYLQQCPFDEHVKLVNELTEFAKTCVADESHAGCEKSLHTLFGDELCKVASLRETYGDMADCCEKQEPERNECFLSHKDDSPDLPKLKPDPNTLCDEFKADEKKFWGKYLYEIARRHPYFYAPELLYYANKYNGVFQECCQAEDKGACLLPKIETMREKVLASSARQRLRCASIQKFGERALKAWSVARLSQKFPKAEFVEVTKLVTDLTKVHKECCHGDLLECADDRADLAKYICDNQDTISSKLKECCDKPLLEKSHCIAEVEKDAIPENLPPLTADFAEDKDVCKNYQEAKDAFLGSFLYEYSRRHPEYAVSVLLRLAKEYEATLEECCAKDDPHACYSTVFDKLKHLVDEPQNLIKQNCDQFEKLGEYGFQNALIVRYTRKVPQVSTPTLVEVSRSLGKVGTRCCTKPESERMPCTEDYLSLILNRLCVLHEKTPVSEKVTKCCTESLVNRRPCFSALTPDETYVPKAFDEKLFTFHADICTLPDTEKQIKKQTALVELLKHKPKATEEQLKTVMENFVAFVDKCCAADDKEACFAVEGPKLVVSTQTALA
bovine serum albumin (BSA), sequence (P02769 25-607): as above
dye-BSA complexes, sequence (P02769 25-607, one chain of several): as the sequence (P02769 25-607) above

| SMILES | Φ [1] [%] | λabs [1] [nm] | detection limit (10% increase in fluorescence emission) [2] [µg/mL] | visual recognizable detection limit (S/N above 3:1) [2] [µg/mL] | F(+)/F(−) fluorescence intensity with BSA / without BSA [2] | fluorescence in the absence of BSA [2] | λabs(+) [2] [nm] | λem(+) [2] [nm] | λabs(−) [2] [nm] | λem(−) [2] [nm] | photostability under UV irradiation (dye-BSA complexes) | also measured |
| --- | --- | --- | --- | --- | --- | --- | --- | --- | --- | --- | --- | --- |
| Nc1ccc(-c2oc3ccccc3c(=O)c2O)cc1 [compound 6, 2-(4-aminophenyl)-3-hydroxy-4H-chromen-4-one] | 7.2 | 394 | 3.4 | 102 | 29 |  | 386 | 512 | 373 | 522 | fluorescence quenching |  |
| CC(=O)Nc1ccc(-c2oc3ccccc3c(=O)c2O)cc1 [compound 5, N-(4-(3-hydroxy-4-oxo-4H-chromen-2-yl)phenyl)acetamide] | 5.4 | 363 | 14 | 420 | 7.0 |  | 365 | 514 | 357 | 452 | fluorescence quenching | λem [1]: 505 nm |
| CN(C)c1ccc(-c2oc3ccccc3c(=O)c2OCc2ccc(CCl)cc2)cc1 [CDCO, 3-(4-(chloromethyl)benzyloxy)-2-(4-(dimethylamino)phenyl)-4H-chromen-4-one] |  |  |  |  |  |  |  |  |  |  |  | staining of 16 hpf zebrafish embryos ([3]; 10 μM, 0.2% DMSO in E3 medium, 30 minutes): stained specifically the yolk-related region in the embryos; localisation of dye during embryo development [3, 6]: consistently confined to the YSL without significant leakage to the blastoderm; staining of the yolk cell [3, 6]: barely stained; fluorescent labeling of 36 hpf embryos ([3]; incubated 1 hour): strong red fluorescence as well as blue and green emission in the yolk region; fluorescent labeling of 7 days old larval zebrafish ([3]; incubated 1 hour, YSL completely absorbed): almost no red fluorescence was observed; fluorescence leakage after washing [4]: no significant fluorescence leakage to blastoderm or somite; toxicity to labeled embryos (zebrafish embryos): almost no apparent toxicity; effect of warfarin on red fluorescence ([5]; 5-fold excess of warfarin): did not completely quench the red fluorescence; emission after warfarin displacement ([5]; 5-fold excess of warfarin): 750 nm; absorption peak ([5]; after addition of one equivalent of BSA): 402 nm; absorption peak ([5]; before addition of BSA): 385 nm; fluorescence emission ([5]; excitation 400 nm, before BSA): 560 nm; blue-shift in fluorescence ([5]; excitation 400 nm, on addition of BSA): about 60 nm; fluorescence emission ([5]; excitation 400 nm, with one equivalent of BSA): 500 nm; fluorescence intensity enhancement ([5]; one equivalent of BSA, excitation at 400 nm): about 2 fold; red/near-infrared fluorescence peak ([5]; with BSA, excited at 570 nm): 700 nm; red fluorescence with zebrafish vitellogenin (zebrafish vitellogenin): almost no red fluorescence |

Now from value to molecule, other results behind:

| Φ [1] [%] | λabs [1] [nm] | detection limit (10% increase in fluorescence emission) [2] [µg/mL] | visual recognizable detection limit (S/N above 3:1) [2] [µg/mL] | F(+)/F(−) fluorescence intensity with BSA / without BSA [2] | fluorescence in the absence of BSA [2] | λabs(+) [2] [nm] | λem(+) [2] [nm] | λabs(−) [2] [nm] | λem(−) [2] [nm] | photostability under UV irradiation (dye-BSA complexes) | SMILES | also measured |
| --- | --- | --- | --- | --- | --- | --- | --- | --- | --- | --- | --- | --- |
| 14.1 | 403 | 0.14 | 4.2 | 740 | almost no fluorescence | 415 | 506 | 410 | 555 |  | CCOCc1ccc2oc(-c3ccc(N(C)C)cc3)c(O)c(=O)c2c1 [compound 2, 2-(4-(dimethylamino)phenyl)-6-(ethoxymethyl)-3-hydroxy-4H-chromen-4-one] |  |
| 11.0 | 404 | 0.59 | 17.7 | 170 | almost no fluorescence | 409 | 552 | 400 | 582 |  | Cc1ccc2oc(-c3ccc(N(C)C)cc3)c(O)c(=O)c2c1 [compound 3, 2-(4-(dimethylamino)phenyl)-3-hydroxy-6-methyl-4H-chromen-4-one] |  |
